The subject of assay [1] is murine BM-DCs. Nature of the assay: Cytokine and chemokine secretion by murine bone marrow-derived DCs (ELISA). It is filed as cell-based, mouse. Also noted: key to TNFα / IL-18 / IL-8 / IL-10 / IL-2 / IL-1β / IL-5 / IL-6 / IL-12: + indicates increase; − indicates no change compared to medium. The procedure: (§1) Bone marrow-derived DCs (BM-DC) were generated using modifications of the original method described by Inaba et al (42). In brief, bone marrow suspensions were incubated with red cell lysis buffer (PUREGENE™ RBC Lysis Solution, Gentra Systems, Minneapolis, Minn.) to remove red blood cells. After washing in media, lymphocytes and Ia-positive cells were killed with a cocktail of mAbs and rabbit complement for 60 min at 37° C. The mAbs were GK1.5 anti-CD4, TIB211 anti-CD8, TIB 120 anti-Ia, and TM 146 anti B220 (The Abs were kindly provided by Dr. Ralph Steinman). The cells were subsequently cultured in media containing 5% FCS and 10 ng/ml recombinant mouse GM-CSF (R&D Systems; Minneapolis, Minn.) for 7 days. For some experiments the cells were further purified at day 7 using CD11c^+-microbeads (Miltenyi Biotech., Auburn, Calif.) according to the manufacturer's instructions.
(§2) At day 7 of culture, immature DCs were either left untreated, or were stimulated with indicated doses of HMGB1-Bx, HMGB1 peptides, or LPS (E. coli serotype 026:B6, Sigma). In all experiments, DCs were analyzed 48 h after stimulation.
(§3) 48 h post activation, the production of cytokines and chemokines in cell culture supernatants was measured by ELISA (Pierce Boston Technology Center, SearchLight™ Proteome Arrays Multiplex Sample Testing Services, Woburn, Mass.).
On the technique in general: ELISA stands for enzyme-linked immunosorbent assay.

The test system of assay [2] is human monocyte-derived DCs. Nature of the assay: Cytokine and chemokine secretion by human immature monocyte-derived DCs (ELISA). It is filed as cell-based. The conditions noted are these: for secretion of IL-6 / secretion of IL-8 / secretion of IL-12 (p70) / secretion of IL-18 / secretion of TNF-α: Example 2, peptides 200 μg/ml, HMGB1-Bx 50 μg/ml, polymyxin B, 48 h; for secretion of IL-6: FIG. 8A, 8B; for secretion of IL-8 / secretion of IL-12 (p70) / secretion of IL-18 / secretion of TNF-α: FIG. 8C; for IL-6 / IL-8 / IL-10 / IL-12 / IL-18 / TNFα: HUMAN DC, ELISA 48 h after exposure, compared to medium. Also noted: key to TNFα / IL-18 / IL-8 / IL-10 / IL-6 / IL-12: + indicates increase; − indicates no change compared to medium. Here is the method: (§4) PBMCs were isolated from the blood of normal volunteers (Long Island Blood Services, Melville, N.Y.) over a Ficoll-Hypaque (Amersham Biosciences, Uppsala, Sweden) density gradient. CD14^+ monocytes were isolated from PBMCs by positive selection using anti-CD14 beads (Miltenyi Biotech., Auburn, Calif.) following the manufacturer's instructions. To generate DCs, CD14^+ cells were cultured in RPMI 1640 medium supplemented with 2 mM L-glutamine (GIBCO-BRL Life Technologies; Grand Island, N.Y.), 50 μM 2-mercaptoethanol (Sigma, St. Louis, Mo.), 10 mM HEPES (GIBCO-BRL), penicillin (100 U/ml)-streptomycin (100 μg/ml) (GIBCO-BRL), and 5% human AB serum (Gemini Bio-Products, Woodland, Calif.). Cultures were maintained for 7 days in 6-well trays (3×10^6 cells/well) supplemented with 1000 U GM-CSF per ml (Immunex, Seattle, Wash.) and 200 U IL-4 per ml (R&D Systems; Minneapolis, Minn.) at days 0, 2, 4 and 6.
(§5) At day 7 of culture, immature DCs were either left untreated (“immature”, IM), or were stimulated with indicated doses of (i) LPS (E. coli serotype 026:B6, Sigma), (ii) 500 ng/ml of trimeric CD40L (Alexis Biochemicals; San Diego, Calif.), (iii) a cocktail of cytokines (CyC) consisting of IL-6 at 1000 U/ml, TNFα at 10 ng/ml, IL-1β at 10 ng/ml (all from R&D Systems) and prostaglandin E2 (PGE-2) at 1 μg/ml (Sigma), or with (v) non-methylated CpG oligonucleotides (5′ […] 3′) at 30 μg/ml. The sequence of this oligonucleotide is known to induce DC maturation (4), except that it contains an unmodified phosphodiester backbone. In all experiments, DCs were analyzed 48 h after stimulation. All experiments using the rB box were performed in the presence of polymyxin B sufficient to neutralize greater than 10-fold more LPS than present in rB box preparations.
as §3
as §4, with “DCs, CD 14^+” for “DCs, CD14^+”
as §2

Assay [3] concerns murine BM-DCs. Nature of the assay: Phenotypic maturation of murine BM-DCs (surface markers, FACS). It counts as cell-based, mouse. The note with it: CD11c+ gated BM-DCs, 48 h; HMGB1-Bx 50 μg/ml, peptides 200 μg/ml. Here is the method: as §1, §2
1×10^4 DCs were reacted for at least 20 min at 4° C. in 100 μl of PBS/5% FCS/0.1% sodium azide (staining buffer) with fluorescein isothiocyanate (FITC)-conjugated IgG mAb specific for CD86, CD40 and MHC-II (eBioscience). Cells were then washed 4 times with staining buffer, fixed in 10% formaldehyde in PBS (pH 7.2-7.4) and examined by flow cytometry using a FACScan (BD). In all experiments, isotype controls were included using FITC-conjugated irrelevant mAb of the same Ig class.

The test system of assay [4] is allogeneic T cells. Nature of the assay: Mixed leukocyte reaction, stimulated murine BM-DCs with allogeneic T cells. It is filed as cell-based, mouse. The note with it: BM-DCs from C57/BL6 mice; HMGB1-Bx 50 μg/ml, peptides 200 μg/ml, 48 h; 5-day co-culture. The procedure: T cells were isolated by negative selection using the mouse SpinSep antibody cocktail from StemCell Technologies (Vancouver, Calif.) according to the manufacturer's instructions. The cell purity of the isolated T cells was routinely ˜99% pure.
To assess levels of T cell activation and proliferation, cells were plated at 10^5 cells per well in a round-bottomed 96-well tray at DC:T cell ratios of 1:120 for 5 days in medium described above. The microcultures were pulsed with (^3H)-thymidine (1 μCi/well) for the final 8 h of culture. Cell cultures were harvested onto glass fiber filters with an automated multiple sample harvester and the amount of isotope incorporation was determined by liquid scintillation β-emission. Responses are reported as mean cpm of thymidine incorporation by triplicate cultures (+/−SEM).

Assay [5] deals with immature DCs. Nature of the assay: Phenotypic maturation of human DCs (surface markers, FACS). It is filed as cell-based. The conditions noted are these: 48 h, rHMGB1 0.1-10.0 μg/ml. The procedure: as §4, §5
1×10^4 DCs were reacted for at least 20 min at 4° C. in 100 μl of PBS/5% FCS/0.1% sodium azide (staining buffer) with phycoerythrin (PE)-conjugated IgG specific for CD206, CD54, HLA-DR (all from Beckton Dickinson Immunostaining Systems; San Jose. Calif.) and CD83 (Immunotech-Beckman-Coulter; Marseille, France) or fluorescein isothiocyanate (FITC)-conjugated IgG mAb specific for CD80, CD40 and CD58 (all from Beckton Dickinson Immunostaining Systems; San Jose. Calif.). Cells were then washed 4 times with staining buffer, fixed in 10% formaldehyde in PBS (pH 7.2-7.4) and examined by flow cytometry using a FACScan (BD). In all experiments, isotype controls were included using an appropriate PE- or FITC-conjugated irrelevant mAb of the same Ig class.

Setting [6] is: Murine DC, ELISA 48 h after exposure, compared to medium.
[7] abbreviates: peptides 200 μg/ml, HMGB1-Bx 50 μg/ml, polymyxin B, 48 h.

“Also recorded” adds a separate entry of the source. No end group written: not given here. *: point of attachment. Biotin = O=C1N[C@H]2[C@H](CS[C@H]2CCCCC(=O)*)N1

As for “DPNAPKRPPSAFFLFCSE (Biotin-DPNAPKRPPSAFFLFCSE; listed as Homo sapiens) [Hp-91]”, in assay [1] (setting [6]), the IL-1β entry was “+”, the IL-2 result is “+”, the IL-5 result is on record as “+” and the IL-6 result is “−”. Also, in assay [1] (setting [6]), the IL-8 entry is “−”, the IL-10 entry is “−”, the IL-12 entry is listed as “+” and the IL-18 entry is recorded as “−”. The TNFα result in assay [1] (setting [6]) was “−”. In addition, the “activation of murine BM-DCs” value in assay [1] (peptides 200 μg/ml, 48 h) was “activated”. For the same substance, in assay [1] (setting [7]), the “secretion of IL-1β” value is reported as “increased production”, the “secretion of IL-2” value is “increased production”, the “secretion of IL-5” value is “increased production” and the “secretion of IL-8” value is given as “not”. For the same substance, the “secretion of TNF-α” value in assay [1] (setting [7]) is “not”. In assay [2], the “secretion of IL-6” value was “enhanced the IL-6 secretion; also recorded: induced IL-6 secretion”, the “secretion of IL-8” value is listed as “not”, the “secretion of IL-12 (p70)” value is reported as “increased secretion” and the “secretion of IL-18” value is “increased secretion”. In addition, in assay [2], the “secretion of TNF-α” value is “increased secretion”, the IL-6 result is reported as “+”, the IL-8 result is on record as “−” and the IL-10 entry is “−”. In addition, in assay [2], the IL-12 entry was “+”, the IL-18 entry is “+” and the TNFα entry is on record as “+”.

As to “SIGDVAKKLGEMWNNTAA (Biotin-SIGDVAKKLGEMWNNTAA; listed as Homo sapiens) [Hp-121, control peptide]”, in assay [3], the CD40 expression result is listed as “No altered expression”, the CD86 expression result is listed as “No altered expression” and the MHC-II expression result is “No altered expression”. Moreover, in assay [4], the “T cell stimulatory activity of exposed BM-DCs in mixed lymphocyte reaction” value was “did not show enhanced T cell stimulatory activity”.

On to “HPDASVNFSEFSKKCSER (Biotin-HPDASVNFSEFSKKCSER; listed as Homo sapiens) [Hp-31]”, for which, in assay [1] (setting [6]), the IL-1β entry is on record as “+”, the IL-2 entry is on record as “+”, the IL-5 entry is “+” and the IL-6 entry is “−”. In assay [1] (setting [6]), the IL-10 result is reported as “−” and the IL-12 result is recorded as “+”. Moreover, in assay [1] (peptides 200 μg/ml, 48 h), the “activation of murine BM-DCs” value is “activated”. In addition, in assay [1] (setting [7]), the “secretion of IL-1β” value is reported as “enhanced the production”, the “secretion of IL-2” value is recorded as “enhanced the production”, the “secretion of IL-5” value is on record as “enhanced the production” and the “secretion of IL-12 (p70)” value was “enhanced the production”. The “secretion of IL-10” value in assay [1] (peptides 200 μg/ml, polymyxin B, 48 h) is given as “not”. Besides, in assay [2], the “secretion of IL-6” value is recorded as “induced secretion of IL-6”, the “secretion of IL-8” value was “not”, the “secretion of IL-12 (p70)” value is on record as “increased secretion” and the “secretion of IL-18” value was “increased secretion”. Also, in assay [2], the “secretion of TNF-α” value is recorded as “increased secretion”, the IL-6 entry was “+”, the IL-8 entry is reported as “−” and the IL-10 result is reported as “−”. In assay [2], the IL-12 result is “+”, the IL-18 entry is “+” and the TNFα entry is “+”.

CSEYRPKIKGEHPGLSIG [Hp-106 non-bio]: the “secretion of IL-12 (p70)” value in assay [1] (setting [7]) is listed as “did not enhance IL-12 secretion”. In addition, the “secretion of IL-6” value in assay [2] is listed as “no activity”.

In the case of “recombinant HMGB1: Human recombinant HMGB1 expressed in Escherichia coli; full-length sequence SEQ ID NO:1”, the CD86 expression result in assay [5] is “increases”. Moreover, in assay [5] (rB box 100 μg/ml), the CD40 expression result was “increases”, the CD54 expression result is “increases”, the CD83 expression result is given as “increases” and the “CD206 (macrophage mannose receptor) expression” value is recorded as “decrease”. Also, in assay [5] (rB box 100 μg/ml), the MHCII expression entry is “increases”.

On to “SERWKTMSAKEKGKFEDM (Biotin-SERWKTMSAKEKGKFEDM; listed as Homo sapiens) [Hp-46]”, for which the “T cell stimulatory activity of exposed BM-DCs in mixed lymphocyte reaction” value in assay [4] is “did not show enhanced T cell stimulatory activity”.

The values are drawn from patent US20110236406A1, “IMMUNOGENIC COMPOSITIONS COMPRISING HMGB1 POLYPEPTIDES” (MedImmune, LLC, priority 2004, published 2011).
